Test results: PMC8308845, “Discovery of Novel Chemical Series of OXA-48 β-Lactamase Inhibitors by High-Throughput Screening” (Pharmaceuticals, 2021)

What was measured:
OXA-48 = target: T1, OXA-48 (Klebsiella pneumoniae, UniProt Q6XEC0); experiment: OXA-48 primary enzymatic assay (nitrocefin substrate, fluorescence-quenching readout); type: biochemical; settings: for AC50 / OXA-48 AC50: dose–response, median of triplicate wells, 15 min preincubation, 25 µM nitrocefin; for fold loss in potency/activity versus parent compound: AC50 ratio, parent ID3 for ID6, parent ID2 for 3 and 5–9
T1 construct: made in house; host or cells: E. coli BL21(DE3), T7 expression system
T1 sequence (Q6XEC0 23-265, looked up): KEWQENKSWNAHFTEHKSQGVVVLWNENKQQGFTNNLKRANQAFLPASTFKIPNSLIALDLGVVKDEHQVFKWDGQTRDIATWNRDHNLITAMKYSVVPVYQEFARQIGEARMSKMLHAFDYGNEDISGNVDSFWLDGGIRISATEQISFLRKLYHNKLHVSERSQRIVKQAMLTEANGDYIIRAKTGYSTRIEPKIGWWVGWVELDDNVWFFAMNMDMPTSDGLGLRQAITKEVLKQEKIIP
Procedure: After an initial pilot run (three plates, consisting of 960 randomly selected compounds), the primary screening of the subset plates was carried out at 20 µM in single point against OXA-48 enzyme in a nitrocefin-based assay, using the fluorescence-quenching readout. This enzymatic assay employs the cephalosporin nitrocefin as OXA-48 substrate and takes advantage of the fluorescent properties of white microtiter plates. Chromogenic nitrocefin is hydrolyzed by β-lactamases to yield a product with increased absorbance properties (~495 nm) that quenches the plate fluorescence by absorbing the plate’s emission light. In this assay, test compounds that inhibit OXA-48 catalytic activity are predicted to reduce nitrocefin quenching of plate fluorescence, resulting in a quantitative increase in well fluorescence (ON-system for inhibitors). The nitrocefin-based epi-absorbance readout system has been successfully applied in HTS campaigns on other β-lactamases, such as IMP-1 and VIM-2, with the identification of inhibitors belonging to novel scaffolds displaying a favourable degree of selectivity and sub-micromolar potency.
The screening results were expressed as activity percent. […] Overall, the primary assay robustness was good, with Robust Z Prime factor (RZ′) equal to 0.86.
In total, 256 active molecules (125 from the subset and 131 from the full set) were then assayed in dose–response at eight concentrations from 60 to 0.002 µM with interplate triplicate data points.
The blaOXA gene coding for the OXA-48 ß-lactamase, originally cloned from the K. pneumonia 11978 (a clinical isolate from Istanbul Faculty Hospital, Istanbul, Turkey) was overexpressed via a T7 expression system in E. coli BL21(DE3), and its product, native protein, (final yield of 30 mg/L of culture) was subjected to several purification steps, including ion-exchange chromatography with Q-Sepharose and 20 mM Tris-HCl buffer (pH 9.0), followed by chromatography with S-Sepharose columns and 100 mM sodium phosphate buffer (pH 5.8). Elution of the beta-lactamase was performed with a K2SO4 gradient. Peaks of beta-lactamase activity were concentrated and were dialyzed with 100 mM phosphate buffer (pH 7.0). The OXA-48 enzyme was purified to homogeneity (with a degree of purity around 95.4%.)-as measured by 12% SDS PAGE [23]. OXA-48 protein stock solution (2 mg/mL) was finally prepared in 20 mM Hepes (pH 8,1). OXA-48 β-lactamase specific activity was measured by following the hydrolysis of 100 μM nitrocefin (ε: 17,000 M-1 cm^−1 at 482 nm; Δε: 15,000 M-1 cm^−1 at 482 nm) and corresponding to 60.45 μmoles min^−1 mg^−1 of OXA-48 (kcat = 28.85 s^−1) enzyme. A MW of 28,147 g/mol, calculated from the enzyme sequence was confirmed by MALDI-TOF analysis with a Mass error of ± 2.8 Da.
The primary assay was developed to monitor the enzymatic activity of OXA-48 taking advantage of the spectroscopic properties of white microtiter plates (Optiplate-384, PerkinElmer, #6007290), as indicated by Zuck et al.. Nitrocefin is chromogenic substrate for beta-lactamases with λmax = 395 nm (yellow). Upon hydrolysis by OXA-48, nitrocefin yields (2R)-2-[(R)-carboxy[2-(thiophen-2-yl)acetamido]methyl]-5-[(E)-2-(2,4-dinitrophenyl)ethenyl]-3,6-dihydro-2H-1,3-thiazine-4-carboxylic acid, with increased absorbance properties at λmax = 495 nm. Spectroscopic features of the reaction product are exploited to quench the plate intrinsic fluorescence by absorbing the plate’s emission light, which can be monitored by exciting the reaction at 485 nm and recording the emission at 520 nm. Therefore, the primary assay for HTS was an ON-assay, in which compounds targeting OXA-48 were predicted to elicit an increase of the fluorescence signal.
The primary assay was performed in reaction buffer (20 mM Hepes pH 8.0, 12.5 mM NaCl, 0.005% BSA, 0.0005% Brij-35) in the presence of 0.0014 ng/µL OXA-48 and 25 µM nitrocefin in a final volume of 20 µL/well in 384 MTP format. […]

[1] = tested on: K. pneumoniae ATCC BAA-2524; experiment: MIC by broth microdilution, β-lactam-resistant strain producing OXA-48; type: cell-based, Klebsiella pneumoniae; settings: for MIC: Klebsiella pneumoniae, ATCCBAA2524, β-lactam alone, read-out: MIC β-lactam
From the text: (§1) To evaluate the capability of restoring β-lactam susceptibility, the two most promising representatives of SC_2 (ID3) and SC_7 (ID2) were screened alone and in combination with ampicillin (AMP) and IMP against sensitive and resistant Gram-negative bacteria. Avibactam and tazobactam were also included in the MIC characterization as BLI reference compounds. Specifically, we used E. coli ATCC25922 as antibiotic-sensitive strain, while E. coli ATCC BAA-2523 and K. pneumoniae ATCC BAA-2524 as β-lactam-resistant bacteria, producing OXA-48 carbapenemase.
(§2) Test compounds and tazobactam were tested at 32 µg/mL, while avibactam was applied at 4 µg/mL. […] Both antibiotics were selected for the combination study as they can be hydrolyzed by the target OXA-48 enzyme.
(§3) MIC values were determined by the broth dilution method and interpreted using published guidelines described by Clinical and Laboratory Standards Institute (CLSI).
(§4) All BLIs were dissolved in 100% DMSO and they were tested at a fixed concentration of 32 µg/mL and 1% of DMSO final concentration. Avibactam was used as reference β-lactamase inhibitor. All antimicrobials were prepared in line with CLSI susceptibility testing standards. AMP (USP # 1033000; batch no. K1M493) was dissolved at 5.12 mg/mL, IMP (USP # 1337809; batch no. R038R0) and avibactam (Biochem # NXL 104; batch no. 20180726) were dissolved at 1.28 mg/mL in the respective solvents recommended by CLSI (2). Solutions at 4X the final concentrations of the test range were made in Cation adjusted Mueller-Hinton broth (CA-MHB, BD # 212322; batch no. 6117994; Expiry date: 29.02.2020) by serial dilutions, and then diluted 2-fold with CA-MHB (for antimicrobials alone), or with the BLIs/avibactam (for combinations of new/reference inhibitors and antimicrobials). Moreover, all BLIs were tested alone at a fixed concentration of 32 μg/mL. The final concentration of DMSO in the test tubes was 1% for each different combination.
(§5) 50 μL of each well were then transferred from the masterblock into 96-well plates to whom were then added 50 μL of the final inoculum. MIC tests were performed by broth microdilution in line with CLSI susceptibility testing standards. Bacterial inocula were prepared at ca. 1 × 10^6 CFU/mL by diluting 100-fold a 0.5 McFarland suspension in CA-MHB with TES (TREK Diagnostic Systems, Product code: T3462; Batch: 356347; Expiry date: 12-Jun-2019). 50 μL of antibacterial solutions at 2 × the final concentrations were diluted 2-fold with 50 μL of inoculum to give a final inoculum of ca. 5 × 10^5 CFU/mL and desired test concentrations of antibacterial agents. Test plates were incubated according to CLSI guidelines and read visually. MIC values corresponded to the first well with no visible growth.

E. coli ATCC25922 = experiment: MIC by broth microdilution, antibiotic-sensitive strain; type: cell-based; settings: Escherichia coli, β-lactam alone, read-out: MIC β-lactam
From the text: as §1, §2, §3, §4, §5

E. coli ATCC BAA-2523 = experiment: MIC by broth microdilution, β-lactam-resistant strain producing OXA-48; type: cell-based, Escherichia coli; settings: for MIC: Escherichia coli, ATCCBAA2523, β-lactam alone, read-out: MIC β-lactam
From the text: as §1, §2, §3, §4, §5

AC50 (OXA-48) [µM]	Structure (SMILES)	other results
3.17	O=C(O)c1ccc(/C=N/n2c(S)nnc2-c2ccc(Cl)cc2Cl)cc1 [ID4]	
24.8	Sc1nnc(-c2ccccc2)n1/N=C/c1cccs1 [ID23]	
35.6	COC(=O)c1ccc(/C=N/n2c(S)nnc2-c2ccccc2)cc1 [ID9]	
12	N#Cc1ccc(/C=N/n2c(S)nnc2-c2ccccc2)cc1 [ID11]	
2.88	O=C(O)c1ccc(/C=N/n2c(S)nnc2C2CCCCC2)cc1 [ID5]	

Second part, the molecule before the results:

Structure (SMILES)	AC50 (OXA-48) [µM]	other results
CCc1ccc(-c2n[nH]c3nc(-c4cc(F)c(O)c(Cl)c4)cc(C(=O)O)c23)cc1 [Compound 9, 6-(3-Chloro-5-fluoro-4-hydroxyphenyl)-3-(4-ethylphenyl)-1H-pyrazolo[3,4-b]pyridine-4-carboxylic acid]	63.8	
CCc1ccc(-c2n[nH]c3nc(-c4cccc(C(=O)O)c4)cc(C(=O)O)c23)cc1 [Compound 3, 6-(3-Carboxyphenyl)-3-(4-ethylphenyl)-1H-pyrazolo[3,4-b]pyridine-4-carboxylic acid]	16.8	fold loss in potency/activity versus parent compound (OXA-48): 17 fold
CCc1ccc(-c2n[nH]c3nc(-c4ccc(C(=O)O)cc4)cc(CC)c23)cc1 [Compound 13, 4-(4-Ethyl-3-(4-ethylphenyl)-1H-pyrazolo[3,4-b]pyridin-6-yl)benzoic acid]	> 100	
O=C(O)c1ccc(/C=N/n2cnnc2S)cc1 [ID6]	15.7	fold loss in potency/activity versus parent compound (OXA-48): more than 20 fold
C[C@@H](O)[C@H]1C(=O)N2C(C(=O)O)=C(SCCN=CN)C[C@H]12 [IMP, imipenem]		MIC [1]: 4 mg/L; MIC (E. coli ATCC25922): 0.12 mg/L; MIC (E. coli ATCC BAA-2523): 2 mg/L
CCc1ccc(-c2n[nH]c3nc(-c4ccc(O)c(F)c4F)cc(C(=O)O)c23)cc1 [Compound 7, 6-(2,3-Difluoro-4-hydroxyphenyl)-3-(4-ethylphenyl)-1H-pyrazolo[3,4-b]pyridine-4-carboxylic acid]	51.2	
CCc1ccc(-c2n[nH]c3nc(-c4cc(F)c(O)cc4F)cc(C(=O)O)c23)cc1 [Compound 5, 6-(2,5-Difluoro-4-hydroxyphenyl)-3-(4-ethylphenyl)-1H-pyrazolo[3,4-b]pyridine-4-carboxylic acid]	16.2	
CCc1ccc(-c2n[nH]c3nc(-c4ccc(C(=O)O)cc4)cc(C(F)(F)F)c23)cc1 [Compound 11, 4-(3-(4-Ethylphenyl)-4-(trifluoromethyl)-1H-pyrazolo[3,4-b]pyridin-6-yl)benzoic acid]	> 100	
CCc1ccc(-c2n[nH]c3nc(-c4ccc(CC(=O)O)cc4)cc(C(=O)O)c23)cc1 [Compound 4, 6-(4-(Carboxymethyl)phenyl)-3-(4-ethylphenyl)-1H-pyrazolo[3,4-b]pyridine-4-carboxylic acid]	4.78	
CCc1ccc(-c2n[nH]c3nc(-c4ccc(C(=O)O)c(F)c4)cc(C(=O)O)c23)cc1 [Compound 1, 6-(4-Carboxy-3-fluorophenyl)-3-(4-ethylphenyl)-1H-pyrazolo[3,4-b]pyridine-4-carboxylic acid]	0.92	
CC1(C)S[C@@H]2[C@H](NC(=O)[C@H](N)c3ccccc3)C(=O)N2[C@H]1C(=O)O [AMP, ampicillin]		MIC [1]: > 512 mg/L; MIC β-lactam ([1]; β-lactam alone): >512 mg/L; MIC (E. coli ATCC25922): 4 mg/L; MIC (E. coli ATCC BAA-2523): > 512 mg/L; MIC β-lactam (E. coli ATCC BAA-2523; β-lactam alone): >512 mg/L
CCc1ccc(-c2n[nH]c3nc(-c4ccc(C(=O)O)cc4F)cc(C(=O)O)c23)cc1 [Compound 2, 6-(4-Carboxy-2-fluorophenyl)-3-(4-ethylphenyl)-1H-pyrazolo[3,4-b]pyridine-4-carboxylic acid]	1.48	
CCc1ccc(-c2n[nH]c3nc(-c4cc(Cl)c(O)c(OC)c4)cc(C(=O)O)c23)cc1 [Compound 8, 6-(3-Chloro-4-hydroxy-5-methoxyphenyl)-3-(4-ethylphenyl)-1H-pyrazolo[3,4-b]pyridine-4-carboxylic acid]	13.7	
CCc1ccc(-c2n[nH]c3nc(-c4ccc(C(=O)O)cc4)cc(CO)c23)cc1 [Compound 12, 4-(3-(4-Ethylphenyl)-4-(hydroxymethyl)-1H-pyrazolo[3,4-b]pyridin-6-yl)benzoic acid]	> 100	OXA-48 AC50 (OXA-48): complete loss of activity
CCc1ccc(-c2n[nH]c3nc(-c4ccc(C(=O)O)cc4)cc(C(N)=O)c23)cc1 [Compound 14, 4-(4-Carbamoyl-3-(4-ethylphenyl)-1H-pyrazolo[3,4-b]pyridin-6-yl)benzoic acid]		OXA-48 AC50 (OXA-48): complete loss of activity
CCc1ccc(-c2n[nH]c3nc(-c4ccccc4O)cc(C(=O)O)c23)cc1 [ID31]		OXA-48 AC50 (OXA-48): inactive
CCc1ccc(-c2n[nH]c3nc(-c4cc(F)c(O)c(F)c4)cc(C(=O)O)c23)cc1 [Compound 6, 6-(3,5-Difluoro-4-hydroxyphenyl)-3-(4-ethylphenyl)-1H-pyrazolo[3,4-b]pyridine-4-carboxylic acid]	24.4	
CCc1ccc(-c2n[nH]c3nc(-c4ccccc4)cc(C(=O)O)c23)cc1 [ID30]	249	OXA-48 AC50 (OXA-48): inactive
CCc1ccc(-c2n[nH]c3nc(-c4ccc(C(=O)O)cc4)ccc23)cc1 [Compound 10, 4-(3-(4-Ethylphenyl)-1H-pyrazolo[3,4-b]pyridin-6-yl)benzoic acid]	> 100	
